Common to all, as to format: cell-based
Assay [1] relates to human neutrophils. As to the kind of experiment: Lysis of human neutrophils (release of lactate dehydrogenase). As to conditions: synthetic PSM peptides at 10 μg/ml, LDH release (FIG. 4A). The protocol: (§1) Lysis of PMNs by synthetic PSMs or clarified S. aureus culture media was determined essentially as described (Voyich et al., J Infect Dis 194, 1761-70, 2006; Voyich et al., J Immunol 175, 3907-19, 2005). Synthetic PSMs (1 or 10 μg/ml) were added to wells of a 96-well tissue culture plate containing 10^6 PMNs and plates were incubated at 37° C. for up to 3 hours. At the desired times, PMN lysis was determined by release of lactate dehydrogenase (LDH; Cytotoxicity Detection Kit, Roche Applied Sciences). Alternatively, wild-type and isogenic mutant S. aureus strains were cultured for 18 hours at 37° C. in 50 ml TSB with shaking using a 100 ml flask. Bacteria were removed by centrifugation and culture media were sterilized by filtration and stored at −80° C. in aliquots until used. Culture medium was diluted 1:10 in RPMI/H, mixed with human PMNs (10^6) and tested for its ability to cause PMN lysis.
as §1, with “above in Example 2.” for “(Voyich et al., J Infect Dis 194, 1761-70, 2006; Voyich et al., J Immunol 175, 3907-19, 2005).”
Human neutrophil assays: Human neutrophil isolation, chemotaxis, calcium ion flux, priming, lysis assays, and measurement of IL-8 production were performed as described in Example 2.

The test system of assay [2] is human neutrophils. As to the kind of experiment: Neutrophil chemotaxis (transwell). As to conditions: PSM-mec vs PSMα3; range similar to other α-type PSMs, in general higher than β-type PSMs (FIG. 21A). The protocol:
(§2) Neutrophils were subjected to a brief hypotonic shock with pyrogen-free water (Sigma), washed, and suspended at 5×10^6 cells/ml in HBSS containing 0.05% human serum albumin (HSA; CLB). Chemotaxis of neutrophils was determined by using fluorescently-labeled neutrophils that migrated through a membrane fitted into an insert of a 24-well microtiter plate transwell system (Costar) containing a prewetted 3-μm-pore-size polycarbonate filter as described (de Haas et al., J Exp Med 199, 687-95, 2004). For measurement of calcium ion fluxes, 5×10^6 neutrophils/ml were loaded with 2 μM Fluo-3-AM (Molecular Probes) in RPMI containing 0.05% HSA (RPMI-HSA) for 20 minutes at room temperature under agitation, washed twice with buffer, and resuspended in RPMI-HSA at 10^6 cells/ml. Calcium fluxes were analyzed with a FACScalibur (Becton Dickinson).
(§3) Neutrophils were subjected to a brief hypotonic shock with pyrogen-free water (Sigma), washed, and suspended at 5×10^6 cells/ml in HBSS containing 0.05% human serum albumin (HAS; CLB). Chemotaxis of neutrophils was determined by using fluorescently-labeled neutrophils that migrated through a membrane fitted into an insert of a 24-well microtiter plate transwell system (Costar) containing a prewetted 3-μm-pore-size polycarbonate filter. […] Calcium fluxes were analyzed with a FACScalibur (Becton Dickinson). […]

Assay [3] concerns human neutrophils. As to the kind of experiment: Calcium ion flux in neutrophils (Fluo-3-AM). As to conditions: PSM-mec vs PSMα3; range similar to other α-type PSMs, in general higher than β-type PSMs (FIG. 21B). The protocol: as §2, §3
Assay [4] has as its system human neutrophils. As to the kind of experiment: Scanning electron microscopy of neutrophils exposed to PSMα3. As to conditions: PSMα3 10 μg/ml. As to the method:
FIG. 4 includes several panels showing PSM-induced lysis of human neutrophils. FIG. 4A is a graph showing human neutrophil lysis, measured by release of lactate dehydrogenase (LDH) activity, with synthetic PSM peptides at 10 μg/ml. FIG. 4B is a graph showing human neutrophil lysis, measured by release of LDH activity, with culture filtrates of wild-type, PSM gene deletion and complemented CA- and HA-MRSA strains. Data represent means±SEM of at least three independent measurements. FIG. 4C is a series of digital images showing in vitro lysis of human neutrophils with synthetic PSMα3. Neutrophils were incubated with PSMα3 (10 μg/ml) and observed by scanning electron microscopy at the time intervals indicated, in comparison to untreated controls. […] The peak at ˜190 nm is indicative of α-helicity. […] FIG. 4F is a pair of graphs showing the infiltration and killing of […] leukocytes in a murine peritonitis model. Two hours after infection with the bacteria, neutrophils and monocytes were counted in peritoneal exudates, and dead and live cells were distinguished, using flow cytometry. The number of mice was n=5 for all samples except n=4 for MW2 samples (the results from one mouse in the MW2 wild-type and PSMα deletion strain samples were not included because of extensive bleeding). […]

In the case of fMEFVAKLFKFFKDLLGKFLGNN [PSMα3], in assay [1], the “lysis of human neutrophils in vitro” value is “significant lysis”. For the same substance, the chemotactic activities result in assay [2] is recorded as “most potent”. In addition, the calcium flux entry in assay [3] is “most potent”. In assay [4], the “state of neutrophils after 60 minutes” value is “many neutrophils were completely destroyed”; the “time of exposure until signs of priming and compromised integrity of the plasma membrane” value is at most 5 min.

Source of the values: patent publication US8211445B2, “PSM peptides as vaccine targets against methicillin-resistant Staphylococcus” (The United States of America, as represented by the …, priority 2007, dated 2012).
